# Like-named read-outs stand apart in the source and are kept apart here.
# Legend:
# [1] = target: RET-WT (Homo sapiens, UniProt P07949); assay: RET inhibition experiment (HTRF KinEASE-TK kit), wild-type RET enzyme; type: biochemical; conditions: read-out: The IC50 (nM) for inhibiting RET-WT
# Protocol: (§1) Experimental method: […] After incubation at room temperature for 40 min, TK antibody-cryptate and streptavidin-XL665 were added, and the test was performed after incubation at room temperature for 45 min. With the solvent group (DMSO) as the negative control and the buffer group (without RET enzyme) as the blank control, the relative inhibitory activity percentages (i.e., inhibition rates) of different concentrations of the compounds were computed as per the following formula: […] The relative inhibitory activity percentages of different concentrations of the compounds were plotted with respect to the compound concentrations, and the curve was fitted according to a four-parameter model to compute the IC50 value as per the following formula: y=min+(max-min)/(1+(x/IC50)^(-Hillslope)) where y is the relative inhibitory activity percentage, max is the maximum value of the fitted curve, min is the minimum value of the fitted curve, x is the logarithmic concentration of the compound, and Hillslope is the slope of the curve.
# [2] = target: RET-V804L (Homo sapiens, UniProt P07949, V804L); assay: RET inhibition experiment (HTRF KinEASE-TK kit), mutant RET-V804L; type: biochemical; conditions: read-out: The IC50 (nM) for inhibiting RET-V804L
# Chain of RET-V804L (P07949 29-1114 V804L): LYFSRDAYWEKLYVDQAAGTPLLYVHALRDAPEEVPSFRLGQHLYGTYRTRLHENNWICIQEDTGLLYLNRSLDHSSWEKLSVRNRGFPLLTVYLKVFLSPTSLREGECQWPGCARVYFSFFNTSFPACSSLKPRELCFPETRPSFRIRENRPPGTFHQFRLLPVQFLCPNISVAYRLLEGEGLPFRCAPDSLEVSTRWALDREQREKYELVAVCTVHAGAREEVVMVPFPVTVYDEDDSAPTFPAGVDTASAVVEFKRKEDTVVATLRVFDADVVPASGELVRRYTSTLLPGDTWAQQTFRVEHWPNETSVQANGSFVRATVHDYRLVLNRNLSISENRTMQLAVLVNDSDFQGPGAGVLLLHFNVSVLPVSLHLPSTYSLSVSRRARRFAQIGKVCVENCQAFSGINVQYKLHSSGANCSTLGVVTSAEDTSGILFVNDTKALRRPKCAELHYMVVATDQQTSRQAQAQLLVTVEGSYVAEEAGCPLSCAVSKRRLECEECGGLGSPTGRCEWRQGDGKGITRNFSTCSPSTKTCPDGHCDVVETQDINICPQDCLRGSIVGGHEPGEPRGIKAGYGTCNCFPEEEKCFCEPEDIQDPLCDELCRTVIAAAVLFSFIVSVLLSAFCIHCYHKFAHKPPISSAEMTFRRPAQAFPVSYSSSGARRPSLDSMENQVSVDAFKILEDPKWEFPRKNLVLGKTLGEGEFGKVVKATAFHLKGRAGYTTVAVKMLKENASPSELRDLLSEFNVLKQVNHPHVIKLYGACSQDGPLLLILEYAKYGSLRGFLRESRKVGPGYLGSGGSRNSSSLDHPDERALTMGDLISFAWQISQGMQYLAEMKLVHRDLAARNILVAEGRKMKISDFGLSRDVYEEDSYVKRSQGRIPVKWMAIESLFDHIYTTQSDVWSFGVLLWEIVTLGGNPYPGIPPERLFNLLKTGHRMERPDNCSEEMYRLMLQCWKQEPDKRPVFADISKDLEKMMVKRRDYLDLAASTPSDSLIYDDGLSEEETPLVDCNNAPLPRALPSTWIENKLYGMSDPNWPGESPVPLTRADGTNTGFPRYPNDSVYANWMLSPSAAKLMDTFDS
# Protocol: as §1
# [3] = target: VEGFR2 (Homo sapiens, UniProt P35968); assay: VEGFR2 inhibition experiment (HTRF KinEASE-TK kit); type: biochemical; conditions: read-out: Inhibition rate on VEGFR2; for inhibition at 0.1 µM: 100 nM
# Chain of VEGFR2 (P35968 20-1356, species assumed): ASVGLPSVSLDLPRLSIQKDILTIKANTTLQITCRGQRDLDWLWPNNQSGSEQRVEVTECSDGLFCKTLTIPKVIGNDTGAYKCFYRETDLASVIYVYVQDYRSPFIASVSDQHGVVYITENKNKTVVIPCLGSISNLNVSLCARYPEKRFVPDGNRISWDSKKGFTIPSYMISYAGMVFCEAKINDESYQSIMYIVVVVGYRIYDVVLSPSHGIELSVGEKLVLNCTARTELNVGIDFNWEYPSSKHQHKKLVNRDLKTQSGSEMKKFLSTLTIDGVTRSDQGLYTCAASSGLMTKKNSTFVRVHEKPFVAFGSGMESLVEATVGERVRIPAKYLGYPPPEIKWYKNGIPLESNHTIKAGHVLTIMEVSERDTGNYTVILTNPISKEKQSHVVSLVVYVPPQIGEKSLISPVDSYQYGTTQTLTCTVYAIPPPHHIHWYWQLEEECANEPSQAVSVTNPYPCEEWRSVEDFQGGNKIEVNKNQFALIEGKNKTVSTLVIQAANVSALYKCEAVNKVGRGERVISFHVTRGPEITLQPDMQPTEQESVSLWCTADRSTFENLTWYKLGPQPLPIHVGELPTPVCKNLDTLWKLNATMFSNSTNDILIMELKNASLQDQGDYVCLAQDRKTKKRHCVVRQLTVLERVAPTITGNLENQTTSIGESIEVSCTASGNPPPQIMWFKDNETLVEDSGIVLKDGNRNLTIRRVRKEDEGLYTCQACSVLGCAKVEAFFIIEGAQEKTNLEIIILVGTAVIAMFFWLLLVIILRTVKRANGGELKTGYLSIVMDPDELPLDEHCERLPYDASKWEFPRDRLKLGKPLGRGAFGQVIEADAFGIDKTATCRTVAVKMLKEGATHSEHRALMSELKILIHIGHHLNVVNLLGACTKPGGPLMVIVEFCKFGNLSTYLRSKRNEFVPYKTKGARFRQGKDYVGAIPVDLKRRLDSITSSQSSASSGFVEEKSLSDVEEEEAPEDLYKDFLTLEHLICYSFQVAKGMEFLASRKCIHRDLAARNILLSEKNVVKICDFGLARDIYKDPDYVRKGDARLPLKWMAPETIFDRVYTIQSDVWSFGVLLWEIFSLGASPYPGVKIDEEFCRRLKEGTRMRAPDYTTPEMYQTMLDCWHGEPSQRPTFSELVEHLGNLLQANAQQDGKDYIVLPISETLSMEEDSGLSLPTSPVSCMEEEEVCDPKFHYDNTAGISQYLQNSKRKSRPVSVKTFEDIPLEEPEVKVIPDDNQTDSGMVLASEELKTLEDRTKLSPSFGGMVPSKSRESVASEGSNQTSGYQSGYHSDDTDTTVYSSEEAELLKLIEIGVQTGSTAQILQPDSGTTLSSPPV
# Method in brief: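 HTRF KinEASE-TK format: enzyme and compound were preincubated 30 min at room temperature, then substrate and ATP added for 40 min, followed by cryptate antibody/streptavidin-XL665 detection for 45 min. Inhibition was normalised to DMSO and no-enzyme controls; IC50 from a four-parameter fit.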
# [4] = target: RET-M918T (Homo sapiens, UniProt P07949, M918T); assay: RET inhibition experiment (HTRF KinEASE-TK kit), mutant RET-M918T; type: biochemical; conditions: read-out: The IC50 (nM) for inhibiting the enzyme RET-M918T
# Chain of RET-M918T (P07949 29-1114 M918T): as the sequence (P07949 29-1114 V804L) above, with L776V, M890T counted along it
# Protocol: as §1
# [5] = target: T1, RET-CCDC6 (Homo sapiens, UniProt P07949); assay: RET inhibition experiment (HTRF KinEASE-TK kit), fusion-type RET enzyme; type: biochemical; conditions: read-out: The IC50 (nM) for inhibiting RET-CCDC6
# T1 construct: CCDC6 fusion partner (Q16204 for human); the other entry of the earlier key: CCDC6 (Q16204, Coiled-coil domain-containing protein 6)
# T1 sequence (P07949 with tags, fused parts or gaps): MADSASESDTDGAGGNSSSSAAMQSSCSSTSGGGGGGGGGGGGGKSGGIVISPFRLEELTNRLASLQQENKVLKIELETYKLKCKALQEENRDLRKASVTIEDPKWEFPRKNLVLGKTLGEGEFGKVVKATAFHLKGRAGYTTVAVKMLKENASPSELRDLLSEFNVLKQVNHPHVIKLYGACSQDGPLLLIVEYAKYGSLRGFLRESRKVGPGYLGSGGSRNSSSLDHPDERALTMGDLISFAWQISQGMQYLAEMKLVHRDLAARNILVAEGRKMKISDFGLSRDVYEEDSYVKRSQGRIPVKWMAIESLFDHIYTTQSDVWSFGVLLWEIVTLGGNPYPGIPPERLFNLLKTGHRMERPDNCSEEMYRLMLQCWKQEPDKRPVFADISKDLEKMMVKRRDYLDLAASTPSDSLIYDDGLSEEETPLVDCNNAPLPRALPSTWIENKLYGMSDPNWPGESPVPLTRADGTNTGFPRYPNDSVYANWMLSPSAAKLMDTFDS
# Protocol: as §1
# [6] = target: RET-V804M (Homo sapiens, UniProt P07949, V804M); assay: RET inhibition experiment (HTRF KinEASE-TK kit), mutant RET-V804M; type: biochemical; conditions: read-out: The IC50 (nM) for inhibiting V804M
# Chain of RET-V804M (P07949 29-1114 V804M): as the sequence (P07949 29-1114 V804L) above, with L776M counted along it
# Method in brief: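 Enzyme was pre-incubated with compound at room temperature for 30 min, then substrate and ATP were added for a 40 min reaction. HTRF signal was read after 45 min with TK antibody-cryptate and streptavidin-XL665. IC50 came from a four-parameter fit of percent inhibition against DMSO and no-enzyme controls.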
# [7] = tested on: human medullary thyroid carcinoma TT cells; assay: Efficacy test in mice, subcutaneous xenograft tumor of TT cells; type: in vivo, Balb/c-nu mouse; conditions: 5 mg/kg, PO, BID; TT nude mouse xenograft
# Protocol: Experimental purpose: To evaluate the in vivo efficacy of Compound 17 and BLU-667 in a Balb/c-nu mouse model with a subcutaneous xenograft tumor of human medullary thyroid carcinoma TT cells.
# Drug preparation: Compound 17 was dissolved in 0.1 M aqueous solution of H3PO4, and BLU-667 was dissolved in 0.1 M aqueous solution of HOAc, to prepare clear solutions (pH: about 4.0). An aqueous solution of H3PO4 at a pH of about 4.0 was used for the solvent control group. The mode of administration was PO, BID.
# Tumor measurement: The tumor diameter was measured with a vernier caliper twice a week. The computing formula of the tumor volume is: V=0.5×a×b^2, where a represents a long diameter of the tumor, and b represents a short diameter of the tumor. Evaluation of tumor growth inhibition rate (TGI (%)) for tumor inhibition efficacy of the compounds: TGI (%)=[(1-(mean tumor volume of a treatment group at the end of drug administration-mean tumor volume of the treatment group at the commencement of drug administration))/(mean tumor volume of a solvent control group at the end of treatment-mean tumor volume of the solvent control group at the commencement of treatment)]×100%.
# Statistical analysis: Prism Graphpad5.0 software was used for statistical analysis based on the relative tumor volume at the end of the experiment. The comparison between multiple groups was analyzed by two-way ANOVA, and p<0.05 was considered as a significant difference.
# Experimental results: In the TT nude mouse xenograft model of human medullary thyroid carcinoma, Compound 17 has a significant […] anti-tumor effect at a dose of 5 mg/kg. […] Relative tumor growth rate T/C (%)=TRTV/CRTV×100%, where TRTV is the mean relative tumor volume of the test compound group, CRTV is the relative tumor volume of the solvent control group; and the relative tumor volume RTV=Vt/V0, where V0 is the mean tumor volume at the commencement of the administration, and Vt is the mean tumor volume measured on day t after the administration.
# [8] = Pharmacokinetics and tissue distribution of compounds in rats; type: in vivo; conditions: male, SD, rat, PO 5 mg/kg; for AUC(0-t): read-out: AUC AUClast; for Cmax: read-out: Peak concentration Cmax; for Kp: read-out: T/P Ratio of AUClast in tissue to plasma; for Tmax: read-out: Time to peak concentration Tmax
# Protocol: By intragastric administration (PO) of BLU-667 (prepared according to Example 5 of WO2017/079140A1) and Compound 17 to male SD rats respectively, the plasma concentrations and the tissue concentrations of BLU-667 and Compound 17 in brains, lungs and thyroid of rats were determined to investigate the pharmacokinetic characteristics. The dosage of administration by PO was 5 mg/kg, and the solvent was 0.5% MC (methylcellulose). With administration by PO, blood samples were collected at different time points (0 h before administration, and 0.25 h, 0.5 h, 1 h, 2 h, 4 h, 6 h, 8 h, and 24 h after administration). The blood samples were anticoagulated with dipotassium edetate, and centrifuged to provide plasma samples, which were stored at −80° C. Rats were sacrificed by exsanguination from abdominal aorta at 0.5 h, 2 h, 8 h, and 24 h after PO administration. Brain, lung and thyroid were collected, washed, and homogenized with normal saline at a certain ratio, to provide tissue samples which were stored at −80° C. The plasma samples and tissue samples were processed with precipitated protein and then analyzed by LC-MS/MS. The pharmacokinetic parameters were computed using WinNonlin 6.3 software and using a non-compartmental model.
# Chain of RET-WT (P07949 29-1114): as the sequence (P07949 29-1114 V804L) above, with L776V counted along it
smiles,measurement,setting,value
"Cc1cc(Nc2cc(C)[nH]n2)nc(-c2ccc(N3CC4CC(C3)N4Cc3ccc(-n4cccn4)nc3)nc2)n1 [Compound 60, 2-(6-(6-((6-(1H-pyrazol-1-yl)pyridin-3-yl)methyl)-3,6-diazabicyclo[3.1.1]heptan-3-yl)pyridin-3-yl)-6-methyl-N-(5-methyl-1H-pyrazol-3-yl)pyrimidin-4-amine]",IC50,[1],2.7 ± 0.69 nM
same,IC50,[2],5.07 ± 0.4 nM
same,inhibition at 0.1 µM,[3],65%
same,IC50,[4],1.29 ± 0.27 nM
same,IC50,[5],3.99 ± 0.79 nM
same,IC50,[6],3.77 ± 0.52 nM
"CO[C@]1(C(=O)N[C@@H](C)c2ccc(-n3cc(F)cn3)nc2)CC[C@H](c2nc(C)cc(Nc3cc(C)[nH]n3)n2)CC1 [BLU-667, reference compound]",Relative tumor growth rate T/C,[7],33.62%
same,Tumor growth inhibition rate TGI,[7],88.82%
same,AUC(0-t),[8]; brain,157 ng·h/mL
same,Cmax,[8]; brain,30.8 ng/mL
same,Kp,[8]; brain,0.018
same,Tmax,[8]; brain,30 min
same,AUC(0-t),[8]; lung,25100 ng·h/mL
same,Cmax,[8]; lung,3570 ng/mL
same,Kp,[8]; lung,2.9
same,Tmax,[8]; lung,30 min
same,AUC(0-t),[8]; plasma,8650 ng·h/mL
same,Cmax,[8]; plasma,1490 ng/mL
same,Kp,[8]; plasma,1
same,Tmax,[8]; plasma,60 min
same,AUC(0-t),[8]; thyroid,6350 ng·h/mL
same,Cmax,[8]; thyroid,888 ng/mL
same,Kp,[8]; thyroid,0.73
same,Tmax,[8]; thyroid,30 min
"Cc1cc(Nc2cc(C)[nH]n2)nc(-c2ccc(N3CC4CC(C3)N4Cc3ccc(-n4ncc(F)c4C)nc3)nc2)n1 [Compound 122, 2-(6-(6-((6-(4-fluoro-5-methyl-1H-pyrazol-1-yl)pyridin-3-yl)methyl)-3,6-diazabicyclo[3.1.1]heptan-3-yl)pyridin-3-yl)-6-methyl-N-(5-methyl-1H-pyrazol-3-yl)pyrimidin-4-amine]",IC50,[1],2.35 ± 0.24 nM
same,IC50,[2],4.79 ± 1.68 nM
same,inhibition at 0.3 µM,[3]; 300 nM,67%
same,IC50,[4],4.03 ± 0.66 nM
same,IC50,[5],2.91 ± 0.41 nM
same,IC50,[6],3.33 ± 0.75 nM
"Cc1cc(Nc2cc(C)[nH]n2)nc(-c2ccc(N3CC4CC(C3)N4Cc3ccc(-n4ccc(C5CC5)n4)nc3)nc2)n1 [Compound 120, 2-(6-(6-((6-(3-cyclopropyl-1H-pyrazol-1-yl)pyridin-3-yl)methyl)-3,6-diazabicyclo[3.1.1]heptan-3-yl)pyridin-3-yl)-6-methyl-N-(5-methyl-1H-pyrazol-3-yl)pyrimidin-4-amine]",IC50,[1],7.33 ± 1.19 nM
same,IC50,[2],10.1 ± 1.05 nM
same,inhibition at 0.1 µM,[3],28%
same,IC50,[4],15.8 ± 3.65 nM
same,IC50,[5],18.7 ± 7.27 nM
same,IC50,[6],9.12 ± 1.85 nM

# Reference: US20220144847A1, “HETEROCYCLIC COMPOUND, PHARMACEUTICAL COMPOSITION COMPRISING SAME, PREPARATION METHOD THEREFOR, AND USE THEREOF” (Sichuan Kelun-Biotech Biopharmaceutical Co., Ltd., priority 2019, published 2022)
